Data taken from patent US20100261711A1, “SELECTIVE ANTICONVULSANT AGENTS AND THEIR USES” (WiSys Technology Foundation, priority 2009, published 2010).
“And” between values parts separate entries of the source, which are not always exact repeats. Equal entries are not always repeated.

How the values were obtained:
[1] = target: T1, GABAA/α5 (α5β3γ2 GABAA receptors) (Homo sapiens, UniProt P18507+P31644); assay: Competitive binding assay, [3H]flunitrazepam; details: Binding Affinity at GABAA/α5, αxβ3γ2, [3H]flunitrazepam competition
T1 construct: expressed in transfected cells
Protocol: (§1) The GABAA subunit selectivity of several compounds prepared as described above were determined using competitive binding assays. […] Membranes were harvested with a Brandel cell harvester followed by three ice-cold washes onto polyethyleneimine-pretreated (0.3%) Whatman GF/C filters. Filters were dried overnight and then soaked in Ecoscint, a liquid scintillation cocktail (National Diagnostics; Atlanta, Ga.). Bound radioactivity was quantified by liquid scintillation counting. Membrane protein concentrations were determined using an assay kit from Bio-Rad (Hercules, Calif.) with bovine serum albumin as the standard.

[2] = target: T2, GABAA/α6 (α6β3γ2 GABAA receptors) (Homo sapiens, UniProt P18507+Q16445); assay: Competitive binding assay, [3H]flunitrazepam
T2 construct: expressed in transfected cells
Protocol: as §1

[3] = target: T3, GABAA/α2 (α2β3γ2 GABAA receptors) (Homo sapiens, UniProt P18507+P47869); assay: Competitive binding assay, [3H]flunitrazepam; details: Binding Affinity at GABAA/α2, αxβ3γ2, [3H]flunitrazepam competition
T3 construct: expressed in transfected cells
Protocol: as §1

[4] = target: T4, GABAA/α1 (α1β3γ2 GABAA receptors) (Homo sapiens, UniProt P14867+P18507); assay: Competitive binding assay, [3H]flunitrazepam; details: Binding Affinity at GABAA/α1, αxβ3γ2, [3H]flunitrazepam competition
T4 construct: expressed in transfected cells
Protocol: as §1

6 Hz psychomotor seizure = assay: Minimal clonic seizure (6 Hz) test; format: in vivo; details: Mice IP, 44 mA, 0.5 Hr
From the text: Like the maximal electroshock (MES) test, the minimal clonic seizure (6 Hz) test is used to assess a compound's efficacy against electrically-induced seizures but uses a lower frequency (6 Hz) and longer duration of stimulation (3 s). Test compounds are pre-administered to mice via ip injection. […] Untreated mice will display seizures characterized by a minimal clonic phase followed by stereotyped, automatistic behaviors described originally as being similar to the aura of human subjects with partial seizures. Animals not displaying this behavior are considered protected (Table 10).

[5] = test system: Metrazol-induced clonic seizures; assay: Subcutaneous Metrazol test (scMet), rats; format: in vivo; details: Rat PO, 50 mg/kg
Protocol: (§2) The benzodiazepine derivative compounds selective for GABAa receptor subunits were tested for the ability to suppress seizures in several standard rat and mouse models of epilepsy. […] The standard models incorporated into anticonvulsant screening include the maximal electroshock test (MES), the subcutaneous Metrazol test (scMet), and evaluations of toxicity (TOX). The data for each condition is presented as a ratio of either the number of animals protected or toxic (loss of locomotor activity) over the number of animals tested at a given time point and dose.
(§3) Subcutaneous injection of the convulsant Metrazol produces clonic seizures in laboratory animals. […] Animals are pretreated with various doses of the test compound (in a similar manner to the MES test, although a dose of 50 mg/kg (po) is the standard for Test 2 scMet). At the previously determined TPE of the test compound, the dose of Metrazol which will induce convulsions in 97% of animals (CD97: 85 mg/kg mice) is injected into a loose fold of skin in the midline of the neck. […] An episode of clonic spasms, approximately 3-5 seconds, of the fore and/or hindlimbs, jaws, or vibrissae is taken as the endpoint.

[6] = test system: minimal muscular or neurological impairment; assay: Toxicity (TOX), rotorod procedure, mice; format: in vivo; details: Mice IP
Protocol: as §2
(§4) To assess a compound's undesirable side effects (toxicity), animals are monitored for overt signs of impaired neurological or muscular function. […] When a mouse is placed on a rod that rotates at a speed of 6 rpm, the animal can maintain its equilibrium for long periods of time. The animal is considered toxic if it falls off this rotating rod three times during a 1-min period. In rats, minimal motor deficit is indicated by ataxia, which is manifested by an abnormal, uncoordinated gait. Rats used for evaluating toxicity are examined before the test drug is administered, since individual animals may have peculiarities in gait, equilibrium, placing response, etc., which might be attributed erroneously to the test substance.

MES-induced seizures [7] = assay: Maximal electroshock test (MES), mice; format: in vivo; details: Mice IP
Protocol: as §2
(§5) The MES is a model for generalized tonic-clonic seizures and provides an indication of a compound's ability to prevent seizure spread when all neuronal circuits in the brain are maximally active. These seizures are highly reproducible and are electrophysiologically consistent with human seizures. For all tests based on MES convulsions, 60 Hz of alternating current (50 mA in mice, 150 in rats) is delivered for by corneal electrodes which have been primed with an electrolyte solution containing an anesthetic agent (0.5% tetracaine HCL). For Test 1, mice are tested at various intervals following doses of 30, 100 and 300 mg/kg of test compound given by ip injection of a volume of 0.01 mL/g. In Test 2, rats are tested after a dose of 30 mg/kg (po) in a volume of 0.04 mL/g. Test 8 uses varying doses administered via i.p. injection, again in a volume of 0.04 ml/g. […] In Antiepileptic Drugs, Levy, R. H. M., Meldrum, B. S., Eds.; Raven Press: New York, pp 99-110, 1995b.).

[8] = test system: Metrazol-induced clonic seizures; assay: Subcutaneous Metrazol test (scMet), mice; format: in vivo; details: Mice IP
Protocol: as §2, §3

[9] = test system: minimal motor deficit (ataxia, abnormal gait); assay: Toxicity (TOX), minimal motor deficit, rats; format: in vivo; details: Rat PO, 50 mg/kg
Protocol: as §2, §4

MES-induced seizures [10] = assay: Maximal electroshock test (MES), rats; format: in vivo; details: Rat PO, 50 mg/kg
Protocol: as §2, §5

[11] = Plasma levels by LC-MS/MS (tolerance study); format: in vivo, Sprague Dawley rats
Protocol: Immediately after testing, blood was collected via cardiac puncture. Samples were spun down, plasma was collected and acetonitrile added. Samples were frozen at −80° C. and shipped to a commercial laboratory (Enthalpy) for analysis.
Group 3 (8 subjects) was dosed with vehicle only.

[12] = target: T5, GABAA/α3 (α3β3γ2 GABAA receptors) (Homo sapiens, UniProt P18507+P34903); assay: Competitive binding assay, [3H]flunitrazepam; details: Binding Affinity at GABAA/α3, αxβ3γ2, [3H]flunitrazepam competition
T5 construct: expressed in transfected cells
Protocol: as §1

O=C(OCC(F)(F)F)c1ncn2c1CN=C(c1ccccc1F)c1cc(Br)ccc1-2 [JYI-49, Trifluoroethyl-8-bromo-6-(2′-fluorophenyl)-4H-benzo[f]imidazo[1,5-a][1,4]diazepine-3-carboxylate] showed a Ki [1] of 6.7 nM, a Ki [2] of 3390 nM and a Ki [3] of 2.38 nM. For the same compound, the Ki [4] was 1.87 nM.

C[Si](C)(C)C#Cc1ccc2c(c1)C(c1ccccc1)=NCc1c(C(=O)OCC(F)(F)F)ncn1-2 showed a melting point of 107 to 110 °C.

CNC1=Nc2ccc(Br)cc2C(c2ccccc2)=NC1 showed a melting point of 234 to 235 °C.

In the case of C#Cc1ccc2c(c1)C(c1ccccc1)=N[C@@H](C)c1nnc(C)n1-2 [SH-TS-CH3 (143), (4S)-8-Ethynyl-1,4-dimethyl-6-phenyl-4H-benzo[f][1,2,4]triazolo[4,3-a][1,4]diazepine], the “6 Hz ED50 Biological Response, protected/tested” value (6 Hz psychomotor seizure; 3 mg/kg) is reported as 4/8, the “6 Hz ED50 Biological Response, protected/tested” value (6 Hz psychomotor seizure; 6 mg/kg) is reported as 5/8 and the “6 Hz ED50 Biological Response, protected/tested” value (6 Hz psychomotor seizure; 10 mg/kg) is reported as 8/8. The ED50 (6 Hz psychomotor seizure; Mus musculus, ip, 0.5 h, read-out: ED50 (6 Hz)) was 3.98 mg/kg, the “scMet, animals protected/tested” value ([5]; 0.5 h) was 1/4 and the “scMet, animals protected/tested” value ([5]; 1.0 h) was 0/4^5. For the same compound, the “scMet, animals protected/tested” value ([5]; 2.0 h) was 2/4^25, the “scMet, animals protected/tested” value ([5]; 4.0 h) was 0/4^5 and the “scMet, animals protected/tested” value ([5]; […]) was 0/4^5. The “TOX (Rotorod Test), animals toxic/tested” value ([6]; 3 mg/kg, 0.5 Hr) was 0/8, the “TOX (Rotorod Test), animals toxic/tested” value ([6]; 10 mg/kg, 0.5 Hr) was 5/8^14 and the “TOX (Rotorod Test), animals toxic/tested” value ([6]; 30 mg/kg, 0.5 Hr) was 4/4^14. The “TOX (Rotorod Test), animals toxic/tested” value ([6]; 30 mg/kg, 4.0 Hr) was 0/2, the “TOX (Rotorod Test), animals toxic/tested” value ([6]; 100 mg/kg, 0.5 hr) was 8/8^14 and the “TOX (Rotorod Test), animals toxic/tested” value ([6]; 100 mg/kg, 4.0 hr) was 0/4. The “TOX (Rotorod Test), animals toxic/tested” value ([6]; 300 mg/kg, 0.5 Hr) was 4/4^13, the “TOX (Rotorod Test), animals toxic/tested” value ([6]; 300 mg/kg, 4.0 Hr) was 2/2^14 and the “MES, animals protected/tested” value (MES-induced seizures [7]; 3 mg/kg, 0.5 Hr) was 0/4. The “MES, animals protected/tested” value (MES-induced seizures [7]; 10 mg/kg, 0.5 Hr) was 0/4, the “MES, animals protected/tested” value (MES-induced seizures [7]; 30 mg/kg, 0.5 Hr) was 1/1 and the “MES, animals protected/tested” value (MES-induced seizures [7]; 30 mg/kg, 4.0 Hr) was 0/1. The “MES, animals protected/tested” value (MES-induced seizures [7]; 100 mg/kg, 0.5 hr) was 3/3, the “MES, animals protected/tested” value (MES-induced seizures [7]; 100 mg/kg, 4.0 hr) was 0/3 and the “MES, animals protected/tested” value (MES-induced seizures [7]; 300 mg/kg, 0.5 Hr) was 1/1. The “MES, animals protected/tested” value (MES-induced seizures [7]; 300 mg/kg, 4.0 Hr) was 1/1, the “scMet, animals protected/tested” value ([8]; 3 mg/kg, 0.5 Hr) was 2/4 and the “scMet, animals protected/tested” value ([8]; 10 mg/kg, 0.5 Hr) was 4/4. The “scMet, animals protected/tested” value ([8]; 30 mg/kg, 0.5 Hr) was 1/1, the “scMet, animals protected/tested” value ([8]; 30 mg/kg, 4.0 Hr) was 0/1 and the “scMet, animals protected/tested” value ([8]; 100 mg/kg, 0.5 hr) was 1/1. For the same compound, the “scMet, animals protected/tested” value ([8]; 100 mg/kg, 4.0 hr) was 1/1, the “scMet, animals protected/tested” value ([8]; 300 mg/kg, 0.5 Hr) was 1/1 and the “scMet, animals protected/tested” value ([8]; 300 mg/kg, 4.0 Hr) was 1/1. The “Tox, animals toxic/tested” value ([9]; 0.5 h) was 0/4, the “Tox, animals toxic/tested” value ([9]; 1.0 h) was 0/4 and the “Tox, animals toxic/tested” value ([9]; 2.0 h) was 0/4. The “Tox, animals toxic/tested” value ([9]; 4.0 h) was 0/4, the “Tox, animals toxic/tested” value ([9]; […]) was 0/4 and the “MES, animals protected/tested” value (MES-induced seizures [10]; 0.5 h) was 0/4. The “MES, animals protected/tested” value (MES-induced seizures [10]; 1.0 h) was 0/4, the “MES, animals protected/tested” value (MES-induced seizures [10]; 2.0 h) was 0/4 and the “MES, animals protected/tested” value (MES-induced seizures [10]; 4.0 h) was 0/4. For the same compound, the “MES, animals protected/tested” value (MES-induced seizures [10]; […]) was 0/4, the Ki [1] was 8.1 nM and the Ki [3] was 50.1 nM. It also gave a Ki [4] of 107 nM.

Compound CC(C)(C)OC(=O)c1ncn2c1CN=C(c1ccccc1)c1cc(Br)ccc1-2 has a melting point of 222 to 223 °C.

Compound CCOC(=O)c1ncn2c1CN=C(c1ccccc1)c1cc(Cl)ccc1-2 has a melting point of 174 to 175 °C.

In the case of C#Cc1ccc2c(c1)C(c1ccccn1)=NCc1c(C(=O)O)ncn1-2 [HZ-166 acid], the “HZ-166 acid, plasma average with outliers excluded” value ([11]; Group 1 (five days dosing of HZ-166)) is reported as 9.03 nmol/mL, the “Conc HZ-166 acid in plasma, individual subjects” value ([11]; Group 1: HZ-166 35.5 mg/kg ip for five days, blood after test on day 5) is reported as 2910 ng/mL and 2570 ng/mL and 3430 ng/mL and 2830 ng/mL and BLQ < (1.00) ng/mL and 3780 ng/mL and 3310 ng/mL and 1900 ng/mL and the “HZ-166 acid, plasma average with outliers excluded” value ([11]; Group 2 (HZ-166 on day 5 only)) is reported as 8.72 nmol/mL. For the same compound, the “Conc HZ-166 acid in plasma, individual subjects” value ([11]; Group 2: HZ-166 35.5 mg/kg ip on day 5 only) was 3270 ng/mL and 2180 ng/mL and 167 ng/mL and 3120 ng/mL and 3100 ng/mL and 3690 ng/mL and 2590 ng/mL and 2080 ng/mL.

Work on C#Cc1ccc2c(c1)C(c1ccccc1)=NCc1c(C(=O)OCC(F)(F)F)ncn1-2 [DM-II-20, Trifluoroethyl 8-acetylenyl-6-phenyl-4H-benzo[f]imidazo[1,5-a][1,4]diaze-pine-3-carboxylate] yielded a melting point of 188 to 190 °C, a Ki [1] of 198 nM and a Ki [12] of 35.7 nM. The Ki [3] was 177 nM and the Ki [4] was 5720 nM.
